Experimental data taken from ChEMBL document CHEMBL5579841, “Structure-based development of novel substrate-type G9a inhibitors as epigenetic modulators for sickle cell disease treatment” (Bioorg Med Chem Lett, 2024).
Values after ≈ are worked out from the molar mass of the structure shown. Active and inactive are the calls of the source. No cut-off for these calls is given here.

What was measured:
[1] = molecular target: T1, Histone-lysine N-methyltransferase EHMT2 (Homo sapiens) (UniProt Q96KQ7); assay: Binding affinity to G9a (unknown origin) assessed as binding constant K(off) by SPR analysis
T1 sequence (whole entry): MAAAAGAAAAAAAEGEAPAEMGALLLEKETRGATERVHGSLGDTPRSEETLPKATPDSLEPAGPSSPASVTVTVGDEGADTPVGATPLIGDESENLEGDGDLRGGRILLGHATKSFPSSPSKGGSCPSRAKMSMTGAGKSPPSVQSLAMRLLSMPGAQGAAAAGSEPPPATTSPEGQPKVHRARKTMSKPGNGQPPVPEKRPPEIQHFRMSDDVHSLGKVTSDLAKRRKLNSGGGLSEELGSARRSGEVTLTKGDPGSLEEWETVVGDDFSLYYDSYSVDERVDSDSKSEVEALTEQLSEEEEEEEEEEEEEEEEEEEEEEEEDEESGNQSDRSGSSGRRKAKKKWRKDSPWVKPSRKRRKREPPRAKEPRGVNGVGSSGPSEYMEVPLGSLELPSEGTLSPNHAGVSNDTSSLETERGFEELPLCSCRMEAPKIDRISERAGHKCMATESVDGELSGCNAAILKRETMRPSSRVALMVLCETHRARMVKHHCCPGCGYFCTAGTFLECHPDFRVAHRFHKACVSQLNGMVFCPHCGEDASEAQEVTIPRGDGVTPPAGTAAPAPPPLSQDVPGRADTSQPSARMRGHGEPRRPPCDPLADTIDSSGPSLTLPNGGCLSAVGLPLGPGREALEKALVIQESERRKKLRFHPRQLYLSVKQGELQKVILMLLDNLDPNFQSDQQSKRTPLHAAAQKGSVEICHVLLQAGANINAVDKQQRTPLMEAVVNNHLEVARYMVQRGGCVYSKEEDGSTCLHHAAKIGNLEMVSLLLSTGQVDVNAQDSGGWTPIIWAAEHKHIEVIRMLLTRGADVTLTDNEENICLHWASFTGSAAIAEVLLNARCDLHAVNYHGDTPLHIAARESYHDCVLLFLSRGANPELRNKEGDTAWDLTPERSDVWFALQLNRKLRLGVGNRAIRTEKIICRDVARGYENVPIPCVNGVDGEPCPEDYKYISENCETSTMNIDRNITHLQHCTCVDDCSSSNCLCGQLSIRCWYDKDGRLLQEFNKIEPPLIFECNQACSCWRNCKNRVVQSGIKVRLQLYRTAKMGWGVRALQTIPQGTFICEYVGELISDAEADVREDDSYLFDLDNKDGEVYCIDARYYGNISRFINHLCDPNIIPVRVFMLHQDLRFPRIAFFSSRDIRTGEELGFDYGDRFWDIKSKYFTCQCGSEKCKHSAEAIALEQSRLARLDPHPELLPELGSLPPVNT

[2] = Metabolic stability in mouse liver microsomes assessed as compound remaining measured after 60 mins; format: ADME, Microsome; conditions: read-out: Stability
[3] = molecular target: T2, Histone-lysine N-methyltransferase EHMT2 (Homo sapiens, UniProt Q96KQ7); assay: Binding affinity to G9a (unknown origin) assessed as dissociation constant by SPR analysis
T2 sequence (Q96KQ7 whole entry): T1 sequence (whole entry)

[4] = Metabolic stability in human liver microsomes assessed as compound remaining measured after 60 mins; format: ADME, Microsome; conditions: read-out: Stability
[5] = molecular target: T1, Histone-lysine N-methyltransferase EHMT2 (Homo sapiens); assay: Binding affinity to G9a (unknown origin) assessed as binding constant K(on) by SPR analysis
[6] = Metabolic stability in human liver microsomes assessed as compound remaining measured after 30 mins; format: ADME, Microsome; conditions: read-out: Stability
[7] = Aqueous solubility of compound at pH 7.4; format: physicochemical
[8] = Permeability of compound by PAMPA; format: ADME; conditions: read-out: permeability
[9] = molecular target: T2, Histone-lysine N-methyltransferase EHMT2; assay: Inhibition of G9a (unknown origin)
[10] = Metabolic stability in mouse liver microsomes assessed as compound remaining measured after 30 mins; format: ADME, Microsome; conditions: read-out: Stability
[11] = tested on: HUDEP-2; assay: Induction of gamma-globin mRNA expression in human HUDEP-2 cells assessed as expression shift from adult-type beta-globin to fetal-type gamma-globin upto 1 uM by […] analysis; format: functional, cell-based

Question: What does the source list for CCCC[C@H](NC(=O)c1[nH]c2c(c1C)C(=O)CC(C)(C)C2)C(=O)Nc1ccc(OC2CCN(C)CC2)nc1?
Answer: K [1]: 0.013 s⁻¹; remaining at 1 h [2]: 53%; Kd [3]: 170 nM; remaining at 1 h [4]: 62%; K [5]: 79000 M⁻¹ s⁻¹; remaining at 0.5 h [6]: 80%; solubility [7]: 200 µM (≈ 105 µg/mL); Papp [8]: 8.1 ×10⁻⁶ cm/s; IC50 [9]: 44 nM; remaining at 0.5 h [10]: 72%

Question: For CCCCC(NC(=O)c1[nH]c2c(c1C)C(=O)CC(C)(C)C2)C(=O)Nc1ccc(OCCN(C)C)nc1 (racemic), which solubility [7] is on record?
Answer: > 200 µM

Question: And the Papp [8]?
Answer: 3.6 ×10⁻⁶ cm/s

Question: What about the IC50 [9] of the same compound?
Answer: 110 nM

Question: Which remaining at 1 h [2] does the source give for CCCC[C@H](NC(=O)c1[nH]c2c(c1C)C(=O)CC(C)(C)C2)C(=O)NCc1ccc(CN(C)C)cc1 here?
Answer: 65%

Question: And the remaining at 1 h [4]?
Answer: 30%

Question: What about the remaining at 0.5 h [6] of the same compound?
Answer: 52%

Question: What about the solubility [7] of the same compound?
Answer: 201 µM (≈ 96.6 µg/mL)

Question: What about the Papp [8] of the same compound?
Answer: 7.2 ×10⁻⁶ cm/s

Question: And the IC50 [9]?
Answer: 9 nM

Question: What about the remaining at 0.5 h [10] of the same compound?
Answer: 78%

Question: What does the source list for Cc1c(C(=O)N[C@@H](CCC2CC2)C(=O)Nc2ccc(C#N)cc2)[nH]c2c1C(=O)CC(C)(C)C2?
Answer: K [1]: 0.012 s⁻¹; Kd [3]: 750 nM; K [5]: 16000 M⁻¹ s⁻¹

Question: With CCCCC(NC(=O)c1[nH]c2c(c1C)C(=O)CC(C)(C)C2)C(=O)Nc1ccc(CCN2CCC(F)(F)CC2)cc1 (racemic) as the compound, how does the solubility [7] read?
Answer: 2.3 µM (≈ 1.28 µg/mL)

Question: And the IC50 [9]?
Answer: 1600 nM

Question: Which solubility [7] does the source give for CCCCC(NC(=O)c1[nH]c2c(c1C)C(=O)CC(C)(C)C2)C(=O)Nc1ccccc1 (racemic) here?
Answer: 20 µM (≈ 8.19 µg/mL)

Question: What about the IC50 [9] of the same compound?
Answer: 1300 nM

Question: With CCCCC(NC(=O)c1[nH]c2c(c1C)C(=O)CC(C)(C)C2)C(=O)Nc1cccnc1 (racemic) as the compound, how does the solubility [7] read?
Answer: > 200 µM

Question: What about the Papp [8] of the same compound?
Answer: 29 ×10⁻⁶ cm/s

Question: What does the source list for CCCCC(NC(=O)c1[nH]c2c(c1C)C(=O)CC(C)(C)C2)C(=O)NCc1ccccc1 (racemic)?
Answer: solubility [7]: 2.5 µM (≈ 1.06 µg/mL); IC50 [9]: 330 nM

Question: For CCCC[C@H](NC(=O)c1[nH]c2c(c1C)C(=O)CC(C)(C)C2)C(=O)Nc1ccc(OC2CCN(C)CC2)cc1, which K [1] is on record?
Answer: 0.013 s⁻¹

Question: And the Activity [11]?
Answer: Active

Question: What about the remaining at 1 h [2] of the same compound?
Answer: 58%

Question: What about the Kd [3] of the same compound?
Answer: 120 nM

Question: What about the remaining at 1 h [4] of the same compound?
Answer: 37%

Question: And the K [5]?
Answer: 110000 M⁻¹ s⁻¹

Question: What about the remaining at 0.5 h [6] of the same compound?
Answer: 57%

Question: What about the solubility [7] of the same compound?
Answer: 200 µM (≈ 105 µg/mL)

Question: And the Papp [8]?
Answer: 9.3 ×10⁻⁶ cm/s

Question: What about the IC50 [9] of the same compound?
Answer: 24 nM

Question: And the remaining at 0.5 h [10]?
Answer: 72%

Question: Which solubility [7] does the source give for CCCCC(NC(=O)c1[nH]c2c(c1C)C(=O)CC(C)(C)C2)C(=O)Nc1ccc(OC2CCN(C)CC2)cc1 (racemic) here?
Answer: 192 µM (≈ 100 µg/mL)

Question: What about the Papp [8] of the same compound?
Answer: 5.9 ×10⁻⁶ cm/s

Question: And the IC50 [9]?
Answer: 22 nM

Question: Which solubility [7] does the source give for CCCCC(NC(=O)c1[nH]c2c(c1C)C(=O)CC(C)(C)C2)C(=O)Nc1ccc(OCCN)nc1 (racemic) here?
Answer: > 200 µM

Question: And the Papp [8]?
Answer: 0.4 ×10⁻⁶ cm/s

Question: What about the IC50 [9] of the same compound?
Answer: 74 nM

Question: With CCCCC(NC(=O)c1[nH]c2c(c1C)C(=O)CC(C)(C)C2)C(=O)Nc1ccc(CCN2CCS(=O)(=O)CC2)cc1 (racemic) as the compound, how does the solubility [7] read?
Answer: 37 µM (≈ 21.1 µg/mL)

Question: What about the Papp [8] of the same compound?
Answer: 2.12 ×10⁻⁶ cm/s

Question: What about the IC50 [9] of the same compound?
Answer: 2800 nM

Question: For CCCCC(NC(=O)c1[nH]c2c(c1C)C(=O)CC(C)(C)C2)C(=O)NCc1ccc(CN(C)C)cc1 (racemic), which solubility [7] is on record?
Answer: > 200 µM

Question: What about the Papp [8] of the same compound?
Answer: 9.5 ×10⁻⁶ cm/s

Question: What about the IC50 [9] of the same compound?
Answer: 12 nM

Question: For CCCCC(NC(=O)c1[nH]c2c(c1C)C(=O)CC(C)(C)C2)C(=O)Nc1ccc(CN(C)C)cc1 (racemic), which IC50 [9] is on record?
Answer: 42 nM

Question: For CCCCC(NC(=O)c1[nH]c2c(c1C)C(=O)CC(C)(C)C2)C(=O)Nc1ccc(CCN2CCOCC2)cc1 (racemic), which solubility [7] is on record?
Answer: 14 µM (≈ 7.32 µg/mL)

Question: What about the IC50 [9] of the same compound?
Answer: 1000 nM

Question: Which results are given for CCCCC(NC(=O)c1[nH]c2c(c1C)C(=O)CC(C)(C)C2)C(=O)Nc1ccc(CCN2CCCCC2)cc1 (racemic)?
Answer: solubility [7]: 197 µM (≈ 103 µg/mL); Papp [8]: 6.3 ×10⁻⁶ cm/s; IC50 [9]: 42 nM

Question: For CCCCC(NC(=O)c1[nH]c2c(c1C)C(=O)CC(C)(C)C2)C(=O)Nc1ccc(CN2CCC(F)(F)CC2)cc1 (racemic), which solubility [7] is on record?
Answer: 5.7 µM (≈ 3.09 µg/mL)

Question: And the IC50 [9]?
Answer: 930 nM

Question: Which remaining at 1 h [2] does the source give for CCCC[C@H](NC(=O)c1[nH]c2c(c1C)C(=O)CC(C)(C)C2)C(=O)Nc1ccccc1 here?
Answer: 1.1%

Question: And the remaining at 1 h [4]?
Answer: 10%

Question: And the remaining at 0.5 h [6]?
Answer: 22%

Question: And the solubility [7]?
Answer: 7 µM (≈ 2.87 µg/mL)

Question: What about the Papp [8] of the same compound?
Answer: 35.9 ×10⁻⁶ cm/s

Question: And the remaining at 0.5 h [10]?
Answer: 11%

Question: What does the source list for CCCCC(NC(=O)c1[nH]c2c(c1C)C(=O)CC(C)(C)C2)C(=O)Nc1ccc(OC2CCN(C)CC2)nc1 (racemic)?
Answer: solubility [7]: > 200 µM; Papp [8]: 4.9 ×10⁻⁶ cm/s; IC50 [9]: 65 nM

Question: Which results are given for CCCCC(NC(=O)c1[nH]c2c(c1C)C(=O)CC(C)(C)C2)C(=O)Nc1ccc(CN2CCCC2)cc1 (racemic)?
Answer: solubility [7]: 189 µM (≈ 93.1 µg/mL); Papp [8]: 12.7 ×10⁻⁶ cm/s; IC50 [9]: 44 nM

Question: Which results are given for CCCCC(NC(=O)c1[nH]c2c(c1C)C(=O)CC(C)(C)C2)C(=O)Nc1ccc(OCCNC)nc1 (racemic)?
Answer: solubility [7]: > 200 µM; Papp [8]: 0.07 ×10⁻⁶ cm/s; IC50 [9]: 59 nM
